{
  "source": "patent US5409898A",
  "about": "“Compositions and methods for treating infections caused by organisms sensitive to β-lactam antibiotics” (priority 1994, dated 1995)",
  "key": {"E. coli ATCC 25922 [1]": {"test_system": "E. coli ATCC 25922", "test": "Bactericidal assay in GVB++ buffer (magainin 2 / cefepime)", "type": "cell-based, Escherichia coli", "conditions": "cefepime alone (1/4 MIC)", "method": "FIG. 1 illustrates magainin 2 killing of untreated and cefepime altered E. coli in buffer. […] Cells were diluted as described in Section 6.1.5 and added to tubes containing GVB^++ buffer, with or without cefepime, and varying concentrations of magainin 2 peptide (indicated on the X axis). […] After 180 minutes at 37° C., bacterial survival was determined by measuring the number of colony forming units (cfu) in each tube. Bacterial counts were determined in triplicate. For each magainin concentration: Log Kill=log10 cfu no magainin-log10 cfu containing magainin.\nThe total reaction mixture was 0.25 ml."}, "E. coli ATCC 25922 [2]": {"test_system": "E. coli ATCC 25922", "test": "Serum bactericidal assay in 40% pooled normal human serum (magainin 2 with antibiotics)", "type": "cell-based, Escherichia coli", "conditions": "1/32, 1/16, 1/8 MIC antibiotic; 200 μg/ml magainin 2; 40% pooled normal human serum"}, "M009": {"test_system": "M009", "test": "Determination of the minimum inhibitory concentration (MIC), M009", "type": "cell-based, Pseudomonas aeruginosa", "conditions": "antibiotic resistant strain M009", "method": "(§1) The MIC represents the lowest concentration of antimicrobial agent at which complete inhibition occurs. MIC's were determined by the microdilution plate dilution method using AMH (Manual of Clinical Microbiology, Fourth Edition, Lennette, E. H. Ed. in Chief, ASM. 1985. pps 972-977). At least three different determinations were performed with each antibiotic for each strain.\n(§2) MIC's were determined by the microdilution plate dilution method using AMH (Manual of Clinical Microbiology, Fourth Edition, Lennette, E. H. Ed. in Chief, ASM. 1985. pps 972-977). At least three different determinations were performed with each antibiotic for each strain."}, "[3]": {"test_system": "non K1 E. coli strain A645AP", "test": "In vivo protection of neutropenic mice challenged with E. coli A645AP", "conditions": "neutropenic mice challenged with E. coli A645AP (5.0×10^4 organisms)", "method": "(§3) Male CrL:CF1 mice were made neutropenic five days prior to bacterial challenge. Neutropenia was induced by subcutaneous injection of 250 mg/kg Cytoxan (cyclophosphamide). The mice were challenged with either 2×10^4 E. coli H16 (Table 4) or 5×10^4 A645AP by intraperitoneal injection. Mice were divided into four treatment groups: (1) PBS; (2) C-13 peptide analog (15 mg/kg); (3) cefepime (0.1 mg/kg); (4) a combination treatment of cefepime and C-13 peptide analog (0.1 mg/kg cefepime and 15 mg/kg C-13 peptide analog) that were combined prior to injection. All injections were made in PBS (0.2 ml) and were administered intramuscularly with each injection in separate legs, one and 3.5 hours after bacterial challenge. The survival of the mice was monitored for ten days and the results analyzed by the Fisher Exact test.\nC-13 peptide analog G was also examined in neutropenic mice challenged with the non K1 E. coli strain A645AP (5.0×10^4 organisms). When mice were examined for survival after bacterial challenge the following results were obtained: in group 1, where only PBS was administered 3 out of 20 mice survived; in group 2, where only G was administered, 0 out of 15 survived; in group 3 where cefepime was administered 3 out of 20 survived; and in group 4, where both G and cefepime were administered 8 out of 15 survived."}, "A645AP (pBR322)": {"test_system": "A645AP (pBR322)", "test": "Determination of the minimum inhibitory concentration (MIC), A645AP (pBR322)", "type": "cell-based", "conditions": "Escherichia coli; antibiotic resistant strain A645AP (pBR322)", "method": "as §1, §2"}, "E. coli H16 [4]": {"test_system": "E. coli H16", "test": "In vivo protection of neutropenic mice from lethal E. coli H16 infection (magainin 2, C-13 peptide, cefepime, amikacin)", "conditions": "neutropenic mice, 2×10^4 E. coli H16 i.p.; two i.m. injections at 1 and 3.5 hr: 1 mg/mouse magainin 2, 0.1 mg/kg cefepime; at least 10 days", "method": "The ability of magainin and cefepime combinations to protect mice from a lethal infection of E. coli was examined. Mice were made neutropenic by injection of Cytoxan and then challenged with E. coli. Mice were then divided into four different groups: (1) mice that were given no further treatment; (2) were given magainin 2 or C-13 peptide only; (3) were given cefepime only and (4) were given a combination of magainin 2 or C-13 peptide and cefepime. […] When amikacin, an aminoglycoside, was tested in similar experiments, no in vitro bactericidal activity or in vivo protection was found.\nMice were made neutropenic five days prior to bacterial challenge. Neutropenia was induced by subcutaneous injection of 250 mg/kg Cytoxan (cyclophosphamide). The mice were challenged with 2×10^4 E. coli H16. Challenge was by intraperitoneal injection. […] The survival of the mice was monitored for a period of at least 10 days"}, "E. coli H16 [5]": {"test_system": "E. coli H16", "test": "In vivo protection of neutropenic mice from systemic E. coli H16 infection (C-13 peptide analogs)", "text": "The ability of C-13 peptide analogs and cefepime combinations to protect mice from a lethal infection of E. coil was examined. Mice were made neutropenic by an injection of cyclophosphamide and then challenged with E. coli. Mice were then divided into four groups: (1) mice that were given PBS; (2) were given C-13 peptide analogs only; (3) were given cefepime only; and (4) were given a combination of C-13 peptide analogs and cefepime.\nas §3"}, "[6]": {"conditions": "neutropenic mice, 2×10^4 E. coli H16 i.p., peptide 15 mg/kg, cefepime 0.1 mg/kg i.m. at one and 3.5 hours, ten days"}},
  "data": [
    {"smiles": "CO/N=C(\\C(=O)N[C@@H]1C(=O)N2C(C(=O)[O-])=C(C[N+]3(C)CCCC3)CS[C@H]12)c1csc(N)n1", "note": "[cefepime]", "values": [
      {"measurement": "log10 kill", "setting": "E. coli ATCC 25922 [1]", "result": "Less than 0.3 log10"},
      {"measurement": "synergy of antibiotic with magainin 2", "setting": "E. coli ATCC 25922 [2]", "result": "synergistic"},
      {"measurement": "MIC", "setting": "M009", "result": 64, "unit": "ug/MI"},
      {"measurement": "mice survived (out of total)", "setting": "[3]", "result": "3 out of 20"},
      {"measurement": "MIC", "setting": "A645AP (pBR322)", "result": 1, "unit": "µg/mL"},
      {"measurement": "mice survived (out of total)", "setting": "E. coli H16 [4]", "result": "1 out of 20"},
      {"measurement": "protection from systemic E. coli H16 infection", "setting": "E. coli H16 [5]; Fisher Exact test", "result": "failed to provide a significant level of protection"},
      {"measurement": "% Survival", "setting": "E. coli H16 [5]; [6]", "result": 12, "unit": "%"},
      {"measurement": "Number--Survived/Total", "setting": "E. coli H16 [5]; [6]", "result": "3/25"}
    ]}
  ]
}
